Assay [1] deals with KRas G12D mutant. In words: Ras GTP Binding Domain Inhibition Assay (Ras Superfamily Assay). The conditions noted are these: 20 μM compound; for KRas G12D mutant + SOS: % inh.: with SOS; for KRas G12D mutant: % inh.: without SOS. The method, boiled down:
(§1)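 Binding of 100 nM fluorescent GTP (Cy3 or Cy5, 45 min, room temperature) was read after washes from plate-captured His-tagged protein. Beforehand, compounds at 20 μM or in dilution series for IC50 sat 3 h on the protein in Tris buffer pH 7.4 or 7.0 with 1% DMSO, Sos GEF optionally added for the last hour.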

The target of assay [2] is T1, Rac-1 (Homo sapiens, UniProt P63000).
T1 construct: made in house
Described as above. The conditions noted are these: read-out: Rac-1: % inh. The method, boiled down: as §1

The test system of assay [3] is KRas wild type. The description is as above. As to conditions: 20 μM compound; for KRas wild type + SOS: % inh.: with SOS; for KRas wild type: % inh.: without SOS. The method, boiled down:
as §1

Assay [4] concerns IL6. Kind of assay: IL-6 Quantification Assay (ELISA), LPS-stimulated RAW 264.7. The format is cell-based. Also on record: inhibition: dose or concentration left out as unconfirmed. The conditions noted are these: Mus musculus, RAW264.7; read-out: IL-6: % inh. For orientation: In an ELISA, binding on a coated surface is turned into a signal by an enzyme label.
The subject of assay [5] is TNF-alpha. In words: TNF-alpha Quantification Assay (ELISA), LPS-stimulated RAW 264.7. The format is cell-based. As to conditions: Mus musculus, RAW264.7; at 10 μM; read-out: TNFα: % inh.
Assay [6] concerns Akt phosphorylation. In words: Akt Phosphorylation Assay (western blot), Panc-1. The format is cell-based, human. As to conditions: at 10 μM, * = activation. The method, boiled down:
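Phospho-Akt (Ser473) was measured by western blot in lysates of KRas G12D Panc-1 cells exposed to test compound for 6 h at 37 °C, either at 10 μM final with 0.3% DMSO or as serial dilutions for IC50. One format used overnight 0.5% FBS starvation followed by a 15 min pulse of 1.5 ng/ml EGF. The other used cells in 10% FBS with no stimulation.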

Molecules are shown by their SMILES.

Consider `COCC1CCN(c2nc(-c3nccn3C)nn3cc(-c4ccn(C(C)C)n4)c(C)c23)C1` (racemic) [Compound 2, rac 6-(1-Isopropyl-1H-pyrazol-3-yl)-4-(3-(methoxymethyl)pyrrolidin-1-yl)-5-methyl-2-(1-methyl-1H-imidazol-2-yl)pyrrolo[2,1-f][1,2,4]triazine], for which, in assay [1], the “KRas G12D mutant + SOS: % inh.” value is 0 (0 = 0% inhibition) and the “KRas G12D mutant: % inh.” value is recorded as 0 (0 = 0% inhibition). In assay [2], the inhibition at 20 µM is 0%. Also, in assay [3], the “KRas wild type + SOS: % inh.” value is reported as 0 (0 = 0% inhibition) and the “KRas wild type: % inh.” value is reported as 0 (0 = 0% inhibition). The inhibition in assay [4] was 1 to 24%. Besides, in assay [5], the inhibition at 10 µM lay in the range of 25 to 49%. Besides, in assay [6], the “% inh of Akt phosphorylation in Panc-1” value is on record as “C* (46-84% activation)”.

Turning to `Cn1ccnc1-c1nc(O)c2c(-c3ccccc3)ccn2n1` [Compound 39, 2-(1-Methyl-1H-imidazol-2-yl)-5-phenylpyrrolo[2,1-f][1,2,4]triazin-4-ol], in assay [1], the “KRas G12D mutant + SOS: % inh.” value is reported as “A (A = 1-25% inhibition)” and the “KRas G12D mutant: % inh.” value is given as “A (A = 1-25% inhibition)”. For the same compound, in assay [2], the inhibition at 20 µM was determined as 0%. In addition, in assay [3], the “KRas wild type + SOS: % inh.” value is given as “A (A = 1-25% inhibition)” and the “KRas wild type: % inh.” value is listed as “A (A = 1-25% inhibition)”. Besides, the inhibition in assay [4] was determined as 0%. Besides, the inhibition at 10 µM in assay [5] amounted to 0%. In addition, in assay [6], the “% inh of Akt phosphorylation in Panc-1” value is 0 (0% inhibition).

For `COc1ncc(Nc2nc(-c3nccn3C)nn3cc(-c4ccn(C(C)C)n4)c(C)c23)cn1` [Compound 80, 6-(1-Isopropyl-1H-pyrazol-3-yl)-N-(2-methoxypyrimidin-5-yl)-5-methyl-2-(1-methyl-1H-imidazol-2-yl)pyrrolo[2,1-f][1,2,4]triazin-4-amine], in assay [1], the “KRas G12D mutant + SOS: % inh.” value is recorded as 0 (0 = 0% inhibition) and the “KRas G12D mutant: % inh.” value was “A (A = 1-25% inhibition)”. Besides, the inhibition at 20 µM in assay [2] lay within 1 to 25%. Besides, in assay [3], the “KRas wild type + SOS: % inh.” value is listed as “A (A = 1-25% inhibition)” and the “KRas wild type: % inh.” value is on record as “A (A = 1-25% inhibition)”. In assay [4], the inhibition was 0%. Moreover, the inhibition at 10 µM in assay [5] was 0%. Also, the “% inh of Akt phosphorylation in Panc-1” value in assay [6] was “D* (85-100% activation)”.

As for `COc1cccnc1Nc1nc(-c2nccn2C)nn2cc(-c3ccn(C(C)C)n3)c(C)c12` [Compound 89, 6-(1-Isopropyl-1H-pyrazol-3-yl)-N-(3-methoxypyridin-2-yl)-5-methyl-2-(1-methyl-1H-imidazol-2-yl)pyrrolo[2,1-f][1,2,4]triazin-4-amine], in assay [1], the “KRas G12D mutant + SOS: % inh.” value is reported as “D (D = 76-100% inhibition)” and the “KRas G12D mutant: % inh.” value is recorded as “D (D = 76-100% inhibition)”. In addition, the inhibition at 20 µM in assay [2] lay in the range of 76 to 100%. Moreover, in assay [3], the “KRas wild type + SOS: % inh.” value was “D (D = 76-100% inhibition)” and the “KRas wild type: % inh.” value is recorded as “D (D = 76-100% inhibition)”. Further, the inhibition in assay [4] was 75 to 100%. The inhibition at 10 µM in assay [5] is 25 to 49%. The “% inh of Akt phosphorylation in Panc-1” value in assay [6] was “D* (85-100% activation)”.

Turning to `COC1CCCN(c2nc(-c3nccn3C)nn3cc(-c4ccn(C(C)C)n4)c(C)c23)C1` (racemic) [Compound 4, rac 6-(1-Isopropyl-1H-pyrazol-3-yl)-5-methyl-2-(1-methyl-1H-imidazol-2-yl)-4-(3-(oxo-γ6-methyl)piperidin-1-yl)pyrrolo[2,1-f][1,2,4]triazine], in assay [1], the “KRas G12D mutant + SOS: % inh.” value is recorded as 0 (0 = 0% inhibition) and the “KRas G12D mutant: % inh.” value is on record as “A (A = 1-25% inhibition)”. In addition, the inhibition at 20 µM in assay [2] lay within 1 to 25%. Further, in assay [3], the “KRas wild type + SOS: % inh.” value is reported as “A (A = 1-25% inhibition)” and the “KRas wild type: % inh.” value is “A (A = 1-25% inhibition)”. The inhibition in assay [4] was 75 to 100%. Further, the inhibition at 10 µM in assay [5] was 75 to 100%. The “% inh of Akt phosphorylation in Panc-1” value in assay [6] is on record as 0 (0% inhibition).

`COc1nccc(Nc2nc(-c3nccn3C)nn3cc(-c4ccn(C(C)C)n4)c(C)c23)n1` [Compound 86, 6-(1-Isopropyl-1H-pyrazol-3-yl)-N-(2-methoxypyrimidin-4-yl)-5-methyl-2-(1-methyl-1H-imidazol-2-yl)pyrrolo[2,1-f][1,2,4]triazin-4-amine]: in assay [1], the “KRas G12D mutant + SOS: % inh.” value was “C (C = 50-75% inhibition)” and the “KRas G12D mutant: % inh.” value is on record as “A (A = 1-25% inhibition)”. Besides, the inhibition at 20 µM in assay [2] fell in the range of 50 to 75%. In assay [3], the “KRas wild type + SOS: % inh.” value was 0 (0 = 0% inhibition) and the “KRas wild type: % inh.” value is “B (B = 26-49% inhibition)”. Further, the inhibition in assay [4] lay within 75 to 100%. Besides, the inhibition at 10 µM in assay [5] was in the range of 1 to 24%. Besides, the “% inh of Akt phosphorylation in Panc-1” value in assay [6] is recorded as “D* (85-100% activation)”.

For `COc1ncccc1Nc1nc(-c2nccn2C)nn2cc(-c3ccn(C(C)C)n3)c(C)c12` [Compound 85, 6-(1-Isopropyl-1H-pyrazol-3-yl)-N-(2-methoxypyridin-3-yl)-5-methyl-2-(1-methyl-1H-imidazol-2-yl)pyrrolo[2,1-f][1,2,4]triazin-4-amine], in assay [1], the “KRas G12D mutant + SOS: % inh.” value is on record as “A (A = 1-25% inhibition)” and the “KRas G12D mutant: % inh.” value is on record as 0 (0 = 0% inhibition). Also, the inhibition at 20 µM in assay [2] stood at 0%. Moreover, in assay [3], the “KRas wild type + SOS: % inh.” value is 0 (0 = 0% inhibition) and the “KRas wild type: % inh.” value is on record as 0 (0 = 0% inhibition). Also, the inhibition in assay [4] was in the range of 75 to 100%. In addition, the inhibition at 10 µM in assay [5] was in the range of 50 to 74%. Also, in assay [6], the “% inh of Akt phosphorylation in Panc-1” value is given as “D* (85-100% activation)”.

Consider `COCCO[C@H]1C[C@H](Nc2nc(-c3nccn3C)nn3cc(-c4ccn(C(C)C)n4)c(C)c23)C1` [Compound 92, 6-(1-Isopropyl-1H-pyrazol-3-yl)-N-((1r,3r)-3-(2-methoxyethoxy)cyclobutyl)-5-methyl-2-(1-methyl-1H-imidazol-2-yl)pyrrolo[2,1-f][1,2,4]triazin-4-amine], for which, in assay [1], the “KRas G12D mutant + SOS: % inh.” value was “A (A = 1-25% inhibition)” and the “KRas G12D mutant: % inh.” value is “A (A = 1-25% inhibition)”. Moreover, in assay [2], the inhibition at 20 µM lay within 1 to 25%. For the same compound, in assay [3], the “KRas wild type + SOS: % inh.” value is recorded as 0 (0 = 0% inhibition) and the “KRas wild type: % inh.” value is 0 (0 = 0% inhibition). Moreover, the inhibition in assay [4] was 50 to 74%. Besides, in assay [5], the inhibition at 10 µM was in the range of 1 to 24%. Moreover, the “% inh of Akt phosphorylation in Panc-1” value in assay [6] is recorded as “A* (1-25% activation)”.

Take `COc1ncncc1Nc1nc(-c2nccn2C)nn2cc(-c3ccn(C(C)C)n3)c(C)c12` [Compound 88, 6-(1-Isopropyl-1H-pyrazol-3-yl)-N-(4-methoxypyrimidin-5-yl)-5-methyl-2-(1-methyl-1H-imidazol-2-yl)pyrrolo[2,1-f][1,2,4]triazin-4-amine]: in assay [1], the “KRas G12D mutant + SOS: % inh.” value is “A (A = 1-25% inhibition)” and the “KRas G12D mutant: % inh.” value is recorded as “A (A = 1-25% inhibition)”. Also, the inhibition at 20 µM in assay [2] lay in the range of 1 to 25%. Moreover, in assay [3], the “KRas wild type + SOS: % inh.” value is 0 (0 = 0% inhibition) and the “KRas wild type: % inh.” value is reported as 0 (0 = 0% inhibition). The inhibition in assay [4] lay in the range of 1 to 24%. Moreover, the inhibition at 10 µM in assay [5] lay within 1 to 24%. Further, in assay [6], the “% inh of Akt phosphorylation in Panc-1” value is given as “D* (85-100% activation)”.

For `Cc1c(-c2ccn(C(C)C)n2)cn2nc(-c3nccn3C)nc(Nc3ncc(C4CC4)o3)c12` [Compound 90, 5-Cyclopropyl-N-(6-(1-isopropyl-1H-pyrazol-3-yl)-5-methyl-2-(1-methyl-1H-imidazol-2-yl)pyrrolo[2,1-f][1,2,4]triazin-4-yl)oxazol-2-amine], in assay [1], the “KRas G12D mutant + SOS: % inh.” value is “A (A = 1-25% inhibition)” and the “KRas G12D mutant: % inh.” value is given as 0 (0 = 0% inhibition). Besides, the inhibition at 20 µM in assay [2] was in the range of 76 to 100%. Besides, in assay [3], the “KRas wild type + SOS: % inh.” value was 0 (0 = 0% inhibition) and the “KRas wild type: % inh.” value is recorded as “B (B = 26-49% inhibition)”. Further, the inhibition in assay [4] amounted to 0%. Besides, the inhibition at 10 µM in assay [5] lay within 1 to 24%. Also, in assay [6], the “% inh of Akt phosphorylation in Panc-1” value was “A* (1-25% activation)”.

Take `COCc1noc(Nc2nc(-c3nccn3C)nn3cc(-c4ccn(C(C)C)n4)c(C)c23)n1` [Compound 82, N-(6-(1-Isopropyl-1H-pyrazol-3-yl)-5-methyl-2-(1-methyl-1H-imidazol-2-yl)pyrrolo[2,1-f][1,2,4]triazin-4-yl)-3-(methoxymethyl)-1,2,4-oxadiazol-5-amine]: in assay [1], the “KRas G12D mutant + SOS: % inh.” value is recorded as “B (B = 26-49% inhibition)” and the “KRas G12D mutant: % inh.” value was “C (C = 50-75% inhibition)”. Moreover, in assay [2], the inhibition at 20 µM is 26 to 49%. Also, in assay [3], the “KRas wild type + SOS: % inh.” value was 0 (0 = 0% inhibition) and the “KRas wild type: % inh.” value is on record as “C (C = 50-75% inhibition)”. Also, in assay [4], the inhibition fell in the range of 75 to 100%. For the same compound, the inhibition at 10 µM in assay [5] was 25 to 49%. The “% inh of Akt phosphorylation in Panc-1” value in assay [6] is “D* (85-100% activation)”.

For the origin of these results see patent publication US12459951B2, “Compounds that interact with RAS superfamily proteins for treatment of cancers, inflammatory diseases, rasopathies, and fibrotic disease” (SHY Therapeutics, LLC, priority 2022, dated 2025).
